Data: patent US20040018984A1, “Methods for preventing adhesion formation using protease inhibitors” (priority 2002, published 2004)

Tests used:
[1] = target: bovine thrombin (Bos taurus, UniProt P00735); conditions: cited from earlier work
[2] = tested on: Syrian hamsters; assay: Scoring of adhesion formation after uterine denudation surgery in hamsters; assay type: in vivo, hamster; conditions: for preventative effect, reducing adhesion formation: subsequent experiments in the hamster model with enantiomerically enriched preparations
Procedure: (§1) Mature female Syrian hamsters (SLC, Shizuoka, Japan), 6 weeks of age, weighing 85 to 90 g were maintained in an environmentally controlled room with a 12-hour light, 12-hour dark cycle. Hamsters were anesthetized with intraperitoneal sodium pentobarbital (50 mg/kg). Surgical technique was performed using a modified procedure of Nagler et al. (Am. J. Obstet. Gynecol. 180:558-63, 1999). An abdominal midline incision was made, and the right uterus was grasped and denuded of serosa over half the length of the uterine body until punctate hemorrhage occurred, using a swab. In the […], 1 ml of 10 μM Suc-Val-Pro-Phe^P(OPh)2 in saline was injected into the abdomen. Then, the abdomen was closed in two layers with silk sutures. In the placebo group, the same 1 ml amount of saline was administered as in the chymase inhibitor group.
(§2) Three days after the surgery, the animals (placebo group, n=13; chymase group, n=13) were anesthetized with sodium pentobarbital (50 mgikg, i.p.), and then the uterus was removed for the measurement of chymase activity. Two weeks after the surgery, the animals (placebo group, n=15; chymase group, n=16) were anesthetized with sodium pentobarbital (50 mg/kg, i.p.), and then adhesions were assessed.
The adhesions were graded blindly according to a modified classification of Hulka et al. (Fertil Steril. 30:661-665, 1978): Score 0, no adhesions; Score 1, mild adhesions; Score 2, localized moderate adhesions; Score 3, moderate and wide adhesions; Score 4, severe adhesions, and impossible to separate. Chymase activities were evaluated in a parametric test using Fisher's Protected Least Significant Difference. Adhesion scores were evaluated in a nonparametric test, and statistically analyzed by the Mann-Whitney's U test. Values are given as means ±standard error (S.E.). Differences were considered statistically significant at P<0.05.

[3] = target: human leukocyte elastase (Homo sapiens, UniProt P08246); conditions: cited from earlier work
[4] = target: T1, chymase (Homo sapiens, UniProt P23946); assay: Chymase activity in vascular tissues after administration during the operation; assay type: in vivo; conditions: for 4 weeks, 10 μM administration only during the operation
T1 construct: from tissue
T1 sequence (P23946 22-247): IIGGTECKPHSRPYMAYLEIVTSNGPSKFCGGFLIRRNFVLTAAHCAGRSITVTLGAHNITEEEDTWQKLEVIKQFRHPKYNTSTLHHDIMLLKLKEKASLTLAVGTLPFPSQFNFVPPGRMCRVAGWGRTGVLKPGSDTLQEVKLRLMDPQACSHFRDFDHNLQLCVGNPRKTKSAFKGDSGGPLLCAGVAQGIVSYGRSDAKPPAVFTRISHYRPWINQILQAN
Description: Pursuant to the method of the present invention, at least one protease inhibitor is maintained in an effective concentration at the site of potential adhesion formation for a period of time sufficient to permit substantial re-epithelialization. The protease inhibitor compound is typically administered over the perioperative interval, which for purposes of the present invention may include a period of time prior to surgery, through surgery itself, and also post-completion of surgery. The term of administration of administration may vary, but typically should be effected from the time of surgery for at least 24 to 48 hours after completion of surgical procedures. In general, the protease inhibitory compound may be administered, with or without sustained release vehicles or formulations, from the time of surgery for a period ranging between about 24 hours and about 14 days (a period that generally will include complete healing). Preferably the compound may be administered as above from the time of surgery for a period ranging between about 24 hours and 7 days, and more preferably ranging between about 24 hours and 3 days. […] Effective dosages, regimens, and routes of administration for other protease inhibitors may be readily determined by one of skill in the art using the teachings provided herein.

[5] = tested on: chymase; assay: Uterus chymase activity after uterine denudation surgery in hamsters; assay type: in vivo, hamster; conditions: three days after the operation; 1 ml of 10 μM in saline injected into the abdomen; mean ± S.E.; P=0.06 vs placebo (0.88±0.09)
Procedure: as §1, with “In the placebo group, the same 1 ml amount of saline was administered as in the chymase inhibitor group.” left out
as §2, with “assessed. […]” for “assessed.”
Chymase activity was measured as described previously (Jin et al., J. Hypertens. 16:657-664, 1998). […] Protein concentration was measured with the bicinchoninic acid protein assay reagent (Pierce Chemical, Rockford, Ill.) using bovine serum albumin as a standard. […]

[6] = cited from earlier work
[7] = tested on: chymotrypsin and chymotrypsin-like enzymes; conditions: cited from earlier work

human leukocyte elastase, sequence (P08246 30-267): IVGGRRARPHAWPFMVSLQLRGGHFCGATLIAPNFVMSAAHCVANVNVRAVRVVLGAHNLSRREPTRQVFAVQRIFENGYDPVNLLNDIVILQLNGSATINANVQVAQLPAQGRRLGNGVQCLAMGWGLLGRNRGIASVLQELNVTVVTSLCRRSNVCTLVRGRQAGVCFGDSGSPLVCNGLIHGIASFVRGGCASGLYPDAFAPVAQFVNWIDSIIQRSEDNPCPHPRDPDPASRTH

CC(C)(C)OC(=O)N[C@H](Cc1ccccc1)C(=O)N1CCC[C@H]1C(=O)NC(c1ccc(C(=N)N)cc1)P(=O)(Oc1ccccc1)Oc1ccccc1.Cl (stereo partly drawn) [diphenyl Boc-D-Phe-Pro-amino(4-amidinophenyl)methanephosphonate hydrochloride]
inhibitor potency for bovine thrombin [1]: potent phosphonate inhibitor

CC(C)[C@H](NC(=O)CCC(=O)O)C(=O)N1CCC[C@H]1C(=O)NC(Cc1ccccc1)P(=O)(Oc1ccccc1)Oc1ccccc1 (stereo partly drawn) [Suc-Val-Pro-Phe^P(OPh)2-A]
preventative effect, reducing adhesion formation [2]: significant preventative effect

Boc-Val-Pro-Val^P(OPh)2
inhibitor potency for human leukocyte elastase [3]: relatively potent inhibitors

CC(C)[C@H](NC(=O)CCC(=O)O)C(=O)N1CCC[C@H]1C(=O)NC(Cc1ccccc1)P(=O)(Oc1ccccc1)Oc1ccccc1 (stereo partly drawn) [Suc-Val-Pro-Phe^P(OPh)2]
chymase activity in vascular tissues [4]: significantly suppressed
uterus chymase activity [5]: 0.66±0.06 mU/mg protein
scores of adhesion formation ([2]; two weeks after surgery, 1 ml of 10 μM in saline into the abdomen, score 0-4, mean ± S.E., placebo 2.07±0.34, difference significant): 0.88±0.20
highest score of adhesion formation found ([2]; two weeks after surgery, score 0-4, placebo scores between 0 and 4): ≤ 3
half-life in human plasma [6]: approximately 20 hr
inhibitor potency for chymotrypsin and chymotrypsin-like enzymes [7]: relatively potent inhibitor

CC(C)[C@H](NC(=O)CCC(=O)O)C(=O)N1CCC[C@H]1C(=O)NC(Cc1ccccc1)P(=O)(Oc1ccccc1)Oc1ccccc1 (stereo partly drawn) [Suc-Val-Pro-Phe^P(OPh)2-I]
preventative effect, reducing adhesion formation [2]: not

MeO-Suc-Ala-Ala-Pro-Val^P(OPh)2
inhibitor potency for human leukocyte elastase [3]: relatively potent inhibitors
